ChEMBL document CHEMBL5126602, “Polo-like Kinase 1 Inhibitors in Human Cancer Therapy: Development and Therapeutic Potential” (J Med Chem, 2022)
Numbered stars: 1 amine (or outer) side, 2 acyl side, 3 side chain; on linkers, the order of the positions; unused ones are H or OH. Square brackets hold non-standard residues; d marks the D form. Peptide text beside a SMILES is read from it. X1 = O=C([C@H](Cc1cncn1CCCCc1cn(Cc2ccc(Oc3ccccc3)cc2F)nn1)N[*:1])[*:2]; pT = C[C@@H](OP(=O)(O)O)[C@H](N)C(=O)O

How the values were obtained:
[1] = target: T1, Serine/threonine-protein kinase PLK1 (Homo sapiens, UniProt P53350); experiment: Inhibition of human PLK1 in the presence of ATP
T1 sequence (P53350 whole entry, the tested form may be a part): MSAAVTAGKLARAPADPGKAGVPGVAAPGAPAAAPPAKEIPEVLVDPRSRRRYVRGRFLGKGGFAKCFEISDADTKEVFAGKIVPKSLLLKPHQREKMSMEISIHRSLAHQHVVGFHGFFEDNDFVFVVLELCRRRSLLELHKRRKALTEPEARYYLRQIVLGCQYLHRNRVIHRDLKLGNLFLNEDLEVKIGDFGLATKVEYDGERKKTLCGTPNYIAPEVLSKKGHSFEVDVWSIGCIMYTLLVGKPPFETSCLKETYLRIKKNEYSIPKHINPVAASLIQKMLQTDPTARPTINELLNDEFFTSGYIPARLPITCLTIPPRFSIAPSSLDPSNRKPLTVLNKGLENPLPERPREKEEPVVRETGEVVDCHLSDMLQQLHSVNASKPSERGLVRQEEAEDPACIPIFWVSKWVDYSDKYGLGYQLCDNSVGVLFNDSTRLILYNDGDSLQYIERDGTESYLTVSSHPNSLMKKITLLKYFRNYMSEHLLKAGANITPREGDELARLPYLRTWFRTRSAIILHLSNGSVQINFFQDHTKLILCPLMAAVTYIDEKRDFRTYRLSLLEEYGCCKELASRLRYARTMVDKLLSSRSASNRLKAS

[2] = target: Serine/threonine-protein kinase PLK1 (Homo sapiens, UniProt P53350, T210D); experiment: Inhibition of PLK1 T210D mutant kinase domain (unknown origin) using casein as substrate preincubated for 3 hrs followed by substrate addition and measured after 30 mins in the presence of ATP by ADP-Glo kinase assay
Serine/threonine-protein kinase PLK1 (Homo sapiens, UniProt P53350, T210D), sequence (P53350 2-603 T210D limits assumed): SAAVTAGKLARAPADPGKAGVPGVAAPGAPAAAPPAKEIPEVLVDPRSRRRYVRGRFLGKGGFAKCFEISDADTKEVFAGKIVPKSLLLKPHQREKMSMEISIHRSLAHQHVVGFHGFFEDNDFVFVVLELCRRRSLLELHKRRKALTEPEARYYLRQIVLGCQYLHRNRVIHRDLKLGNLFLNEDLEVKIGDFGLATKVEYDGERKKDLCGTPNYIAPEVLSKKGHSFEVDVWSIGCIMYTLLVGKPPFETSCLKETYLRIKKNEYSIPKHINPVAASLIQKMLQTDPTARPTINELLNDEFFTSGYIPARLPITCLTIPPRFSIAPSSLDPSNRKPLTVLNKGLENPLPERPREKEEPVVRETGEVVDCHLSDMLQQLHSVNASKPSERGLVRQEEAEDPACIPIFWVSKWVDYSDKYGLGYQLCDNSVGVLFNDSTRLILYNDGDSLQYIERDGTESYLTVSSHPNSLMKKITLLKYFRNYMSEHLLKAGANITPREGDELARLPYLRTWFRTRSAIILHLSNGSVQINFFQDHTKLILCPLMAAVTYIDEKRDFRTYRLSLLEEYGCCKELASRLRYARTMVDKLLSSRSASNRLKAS

[3] = Solubility of the compound; assay type: physicochemical
[4] = Half-life in rat liver microsomes; assay type: ADME, Microsome
[5] = target: T1, Serine/threonine-protein kinase PLK1; experiment: Inhibition of PLK1 (unknown origin) in the presence of ATP by ADP-Glo-kinase assay
[6] = target: T2, Serine/threonine-protein kinase PLK2 (Homo sapiens, UniProt Q9NYY3); experiment: Inhibition of PLK2 (unknown origin) in the presence of ATP by ADP-Glo-kinase assay
T2 sequence (Q9NYY3 whole entry): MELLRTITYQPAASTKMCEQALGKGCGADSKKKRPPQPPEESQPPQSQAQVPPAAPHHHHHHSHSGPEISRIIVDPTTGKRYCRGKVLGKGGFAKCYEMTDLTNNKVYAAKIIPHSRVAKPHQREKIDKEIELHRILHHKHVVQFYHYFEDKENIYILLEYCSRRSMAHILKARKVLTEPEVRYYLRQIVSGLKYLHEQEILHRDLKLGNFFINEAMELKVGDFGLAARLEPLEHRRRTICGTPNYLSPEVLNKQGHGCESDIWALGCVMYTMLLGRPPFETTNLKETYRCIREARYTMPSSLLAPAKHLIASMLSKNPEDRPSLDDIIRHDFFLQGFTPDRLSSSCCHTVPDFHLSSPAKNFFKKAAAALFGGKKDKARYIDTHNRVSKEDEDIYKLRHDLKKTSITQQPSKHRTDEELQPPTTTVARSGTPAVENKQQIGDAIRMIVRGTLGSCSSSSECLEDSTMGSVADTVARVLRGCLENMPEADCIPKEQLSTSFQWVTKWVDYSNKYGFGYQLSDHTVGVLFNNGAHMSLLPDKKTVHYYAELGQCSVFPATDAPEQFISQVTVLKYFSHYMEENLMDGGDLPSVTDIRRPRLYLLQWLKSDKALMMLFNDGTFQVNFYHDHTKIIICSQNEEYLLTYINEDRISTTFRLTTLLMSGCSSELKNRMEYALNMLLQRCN

[7] = target: T3, Serine/threonine-protein kinase PLK3 (Homo sapiens, UniProt Q9H4B4); experiment: Inhibition of PLK3 (unknown origin) in the presence of ATP by ADP-Glo-kinase assay
Target sequence in this assay (Q9H4B4 whole entry): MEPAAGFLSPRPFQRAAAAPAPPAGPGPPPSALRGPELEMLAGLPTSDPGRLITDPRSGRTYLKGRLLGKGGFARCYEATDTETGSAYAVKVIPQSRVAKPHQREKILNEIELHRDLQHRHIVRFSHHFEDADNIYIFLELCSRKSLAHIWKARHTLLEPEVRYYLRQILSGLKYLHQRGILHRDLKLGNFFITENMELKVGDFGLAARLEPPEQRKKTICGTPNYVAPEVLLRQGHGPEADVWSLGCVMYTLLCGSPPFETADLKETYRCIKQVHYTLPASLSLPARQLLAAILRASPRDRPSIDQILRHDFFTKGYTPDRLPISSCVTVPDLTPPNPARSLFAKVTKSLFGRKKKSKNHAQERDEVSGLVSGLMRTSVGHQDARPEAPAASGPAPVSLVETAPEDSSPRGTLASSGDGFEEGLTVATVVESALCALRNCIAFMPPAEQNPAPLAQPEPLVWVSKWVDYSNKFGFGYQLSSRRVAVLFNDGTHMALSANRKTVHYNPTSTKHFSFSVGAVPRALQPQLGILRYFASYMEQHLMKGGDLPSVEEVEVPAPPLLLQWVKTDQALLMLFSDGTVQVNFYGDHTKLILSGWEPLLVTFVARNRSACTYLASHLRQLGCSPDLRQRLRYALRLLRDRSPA

[8] = target: T1, Serine/threonine-protein kinase PLK1; experiment: Inhibition of biotinylated p-T78 peptide binding to human HA-EGFP-PLK1 expressed in HEK293-A cells using TMB as substrate incubated for 1 hrs by ELISA plate reader based analysis
[9] = target: T2, Serine/threonine-protein kinase PLK2; experiment: Inhibition of 5-carboxyfluorescein-GPMQTSpTPKNG-OH peptide binding to C-terminal 6His-tagged human PLK2 (355 to 685 residues) PBD expressed in Rosetta BL21 (DE3) cells preincubated for 1 hrs with compound followed by peptide addition and measured immediately by fluorescence polarization assay
SK-OV-3 = experiment: Antiproliferative activity against human SK-OV-3 cells assessed as reduction in cell viability incubated for 72 hrs; assay type: functional, cell-based; details: SK-OV-3, 72 h
U2OS = experiment: Antiproliferative activity against human U2OS cells assessed as reduction in cell viability incubated for 72 hrs; assay type: functional, cell-based
HCT-15 = experiment: Antiproliferative activity against human HCT-15 cells assessed as reduction in cell viability incubated for 72 hrs; assay type: functional, cell-based; details: HCT-15, 72 h
PC-3 = experiment: Antiproliferative activity against human PC-3 cells assessed as reduction in cell viability incubated for 72 hrs; assay type: functional, cell-based; details: PC-3, 72 h
A-431 = experiment: Antiproliferative activity against human A-431 cells assessed as reduction in cell proliferation incubated for 72 hrs; assay type: functional, cell-based; details: A-431, 72 h
Detroit 562 = experiment: Antiproliferative activity against human Detroit 562 cells assessed as reduction in cell viability incubated for 72 hrs; assay type: functional, cell-based; details: Detroit 562, 72 h
A549 = experiment: Antiproliferative activity against human A549 cells assessed as reduction in cell viability incubated for 72 hrs; assay type: functional, cell-based; details: A549, 72 h
HT-29 = experiment: Antiproliferative activity against human HT-29 cells assessed as reduction in cell viability incubated for 72 hrs; assay type: functional, cell-based; details: HT-29, 72 h
LN-229 = experiment: Antiproliferative activity against human LN-229 cells assessed as reduction in cell viability incubated for 72 hrs; assay type: functional, cell-based; details: LN-229, 72 h
[10] = target: T1, Serine/threonine-protein kinase PLK1; experiment: Inhibition of PLK1 in thymidine synchronized human HeLa cells using casein as substrate preincubated with compound for 13 hrs followed by substrate addition and measured after 12 to 36 hrs in the presence of [gamma33P]ATP by autoradiography based Western blot analysis; assay type: cell-based
MCF7 = experiment: Antiproliferative activity against human MCF7 cells assessed as reduction in cell proliferation incubated for 72 hrs; assay type: functional, cell-based; details: MCF7, 72 h
SKW 6.4 = experiment: Antiproliferative activity against human SKW 6.4 cells assessed as reduction in cell viability incubated for 72 hrs; assay type: functional, cell-based; details: SKW 6.4, 72 h
[11] = target: T3, Serine/threonine-protein kinase PLK3; experiment: Inhibition of 5-carboxyfluorescein-GPLATSpTPKNG-OH peptide binding to PLK3 (335 to 646 residues) PBD (unknown origin) at 100 uM preincubated for 1 hrs with compound followed by peptide addition and measured after 1 hrs by fluorescence polarization assay; details: time 2.0 hrs
Target sequence in this assay (Q9H4B4 whole entry, looked up): as the sequence (Q9H4B4 whole entry) above

[12] = target: T1, Serine/threonine-protein kinase PLK1; experiment: Inhibition of 5-carboxyfluoresceinGPMQSpTPLNG-OH peptide binding to PLK1 (326 to 603 residues) PBD (unknown origin) preincubated for 1 hrs with compound followed by peptide addition and measured after 1 hrs by fluorescence polarization assay
HeLa [13] = experiment: Antiproliferative activity against human HeLa cells assessed as inhibition of cell proliferation incubated for 24 hrs by BCA assay; assay type: functional, cell-based
[14] = target: T2, Serine/threonine-protein kinase PLK2; experiment: Inhibition of 5-carboxyfluorescein-GPMQTSpTPKNG-OH peptide binding to PLK2 (355 to 685 residues) PBD (unknown origin) preincubated for 1 hrs with compound followed by peptide addition and measured after 1 hrs by fluorescence polarization assay
[15] = target: T1, Serine/threonine-protein kinase PLK1; experiment: Inhibition of 5-carboxyfluoresceinGPMQSpTPLNG-OH peptide binding to N-terminal His7-tagged human PLK1 (326 to 603 residues) PBD expressed in Escherichia coli BL21 (DE3) cells preincubated for 1 hrs with compound followed by peptide addition and measured after 1 hrs by fluorescence polarization assay
[16] = target: T1, Serine/threonine-protein kinase PLK1; experiment: Inhibition of biotin labelled PoloBoxtide binding to GST/His-fused full length PLK1 (unknown origin) expressed in baculovirus infected Sf9 cells
[17] = target: T2, Serine/threonine-protein kinase PLK2; experiment: Inhibition of Myc-tagged PLK2 PBD (unknown origin) expressed in HEK293T cells using 5CF-GPMQTSpTPKNG-NH2 as substrate preincubated for 30 mins followed by substrate addition and measured after 30 mins by fluorescence polarization assay
[18] = target: T1, Serine/threonine-protein kinase PLK1; experiment: Inhibition of PLK1 PBD (unknown origin) dependent binding
[19] = target: T1, Serine/threonine-protein kinase PLK1; experiment: Inhibition of 5-carboxyfluoresceinGPMQSpTPLNG-OH peptide binding to human PLK1 (326 to 603 residues) PBD expressed in Rosetta BL21 (DE3) cells preincubated for 1 hrs with compound followed by peptide addition and measured immediately by fluorescence polarization assay
MV4-11 = experiment: Antiproliferative activity against human MV4-11 cells assessed as inhibition of cell growth incubated for 24 hrs by CCK-8 assay; assay type: functional, cell-based; details: MV4-11, 24 h
[20] = target: T1, Serine/threonine-protein kinase PLK1; experiment: Inhibition of 5-carboxyfluoresceinGPMQSpTPLNG-OH peptide binding to PLK1 (326 to 603 residues) PBD (unknown origin) preincubated for 1 hrs with compound followed by peptide addition and measured after 75 mins by fluorescence polarization assay
[21] = target: T2, Serine/threonine-protein kinase PLK2; experiment: Inhibition of 5-carboxyfluorescein-GPMQTSpTPKNG-OH peptide binding to PLK2 (355 to 685 residues) PBD (unknown origin) preincubated for 1 hrs with compound followed by peptide addition and measured after 75 min by fluorescence polarization assay
[22] = target: T3, Serine/threonine-protein kinase PLK3; experiment: Inhibition of 5-carboxyfluorescein-GPLATSpTPKNG-OH peptide binding to PLK3 (335 to 646 residues) PBD (unknown origin) at 100 uM preincubated for 1 hrs with compound followed by peptide addition and measured after 75 mins by fluorescence polarization assay; details: time 135.0 min
Target sequence in this assay (Q9H4B4 whole entry, looked up): as the sequence (Q9H4B4 whole entry) above

[23] = target: T1, Serine/threonine-protein kinase PLK1; experiment: Inhibition of biotinylated PLHSpT peptide binding to n-terminal GST-tagged full length human PLK1 PBD preincubated with compound for 30 mins followed by peptide addition and measured after 1 hrs by time-resolved fluorescence energy transfer assay
HeLa [24] = experiment: Antiproliferative activity against human HeLa cells assessed as inhibition of cell proliferation incubated for 72 hrs by MTT assay; assay type: functional, cell-based

Work on `C=CCn1c(=O)c2cnc(Nc3ccc(N4CCN(C)CC4)cc3)nc2n1-c1cccc(C(C)(C)O)n1` [ADAVOSERTIB] yielded an IC50 [1] of 0.015 µM.
Molecule `O=C(O)[C@H]1O[C@@H](Oc2cc3oc(-c4ccccc4)cc(=O)c3c(O)c2O)[C@H](O)[C@@H](O)[C@@H]1O` [BAICALIN] has an IC50 [2] of 3.61 µM.
`O=c1c2cc(F)ccc2n2c(=S)[nH]nc2n1CCc1ccncc1` gave a solubility [3] greater than 60 µg/mL and a half-life [4] greater than 30 min.
`COc1cc(O)c2c(=O)cc(-c3ccccc3)oc2c1OC` [Moslosooflavone] gave an IC50 [5] of 10.2 µM, an IC50 [6] of 952 µM and an IC50 [7] of 5120 µM.
In the case of `C[C@H](OP(=O)(O)O)[C@H](NC(=O)c1ccc2c(c1)nc(CCCCc1ccccc1)n2CCc1ccccc1)C(N)=O`, the IC50 [8] is reported as 4.5 µM.
With `N#Cc1ccc(CC(=O)NCCCn2c(=O)c3cc(F)ccc3n3c(=S)[nH]nc23)cc1` the solubility [3] was greater than 60 µg/mL and the half-life [4] was greater than 30 min.
Work on `O=c1cc(-c2ccccc2)oc2cc(O)c(O)c(O)c12` [BAICALEIN] yielded an IC50 [5] of 9 µM, an IC50 [6] of 314 µM and an IC50 [7] of 40 µM.
With `CC1=CC(=O)C(C(C)C)=C/C1=N/OC(=O)c1ccccc1C` the IC50 [9] was 18.7 µM.
`COc1ccc(CCNCc2ccc(OCc3ccc(Cl)nc3)c(OC)c2)cc1OC` gave an EC50 (SK-OV-3) of 5 µM, an EC50 (U2OS) of 5 µM and an EC50 (HCT-15) of 5 µM. It also gave an EC50 (PC-3) of 5 µM, an EC50 (A-431) of 33 µM and an EC50 (Detroit 562) of 5 µM. The EC50 (A549) was 5 µM, the EC50 (HT-29) was 5 µM and the EC50 (LN-229) was 5 µM. It also gave an EC50 [10] of 0.0002 µM, an EC50 (MCF7) of 12 µM and an EC50 (SKW 6.4) of 5 µM.
`CC1=C/C(=N/OC(=O)c2ccc(CNC(=O)CCc3cn(CCCCCCOCCOCCNC(=O)CC45CC6CC(CC(C6)C4)C5)nn3)cc2C)C(C)=CC1=O` showed an inhibition [11] of 47%, an IC50 [12] of 10.5 µM and an IC50 (HeLa [13]) of 14 µM. The IC50 [14] was 51.9 µM.
For `CC1=C/C(=N/OC(=O)c2ccccc2C)C(C)=CC1=O`, the IC50 [15] was 1.36 µM, the inhibition [11] was 49% and the IC50 [14] was 14.2 µM.
For `O=c1c2cc(F)ccc2n2c(=S)[nH]nc2n1CC1CC1`, the solubility [3] was greater than 60 µg/mL and the half-life [4] was greater than 30 min.
Molecule `Cc1ccc(NC(=S)NCCNc2nccc(C(F)(F)F)n2)c(C)c1` has an IC50 [16] of 1 µM.
With `CC(=O)N1CCC[C@H]1C(=O)N[C@@H](CC(C)C)C(=O)N[C@@H](Cc1cncn1CCCCc1cn(Cc2ccc(Oc3ccccc3)cc2F)nn1)C(=O)N[C@@H](CO)C(=O)N[C@H](C(N)=O)[C@@H](C)OP(=O)(O)O` (Ac-PL[X1]S[pT]-NH2) the IC50 [17] was 5.9 µM.
For `CCCCCCCCCC1=CO[C@]2(C[C@H](C(=O)O)[C@@](CC(=O)O)(C(=O)O)O2)C1=O`, the IC50 [18] was 128 µM.
`N#Cc1cccc(CN2C[C@@H]3C[C@H](C2)c2c(-c4ccc5ccccc5c4)ccc(=O)n2C3)c1` gave an IC50 [19] of 17.9 µM.
With `Cc1onc(-c2ccccc2)c1/C=C1\C(=O)Nc2ccccc21` the IC50 [16] was 20 µM.
`CC[C@@H]1C(=O)N(C)c2cnc(Nc3ccc(C(=O)NCCOCCOCCNc4cccc5c4C(=O)N(C4CCC(=O)NC4=O)C5=O)cc3OC)nc2N1C1CCCC1` (stereo partly drawn) showed an IC50 (MV4-11) of 0.00448 µM.
`O=c1c2cc(F)ccc2n2c(=S)[nH]nc2n1CCc1ccccn1` showed a solubility [3] greater than 60 µg/mL and a half-life [4] greater than 30 min.
With `O=C1C[C@@H](c2ccccc2)Oc2cc(O)c(O)c(O)c21` the IC50 [5] was 6.3 µM, the IC50 [6] was 242 µM and the IC50 [7] was 1600 µM.
Molecule `O=c1c2cc(F)ccc2n2c(=S)[nH]nc2n1CCC(F)(F)F` has a solubility [3] greater than 60 µg/mL and a half-life [4] greater than 30 min.
`CC1=C/C(=N/OC(=O)c2ccc(CNC(=O)CCc3cn(CCCCCCOCCOCCNC(=O)[C@H](C)CCC45CC6CC(CC(C6)C4)C5)nn3)cc2C)C(C)=CC1=O` gave an IC50 [20] of 48.2 µM, an IC50 (HeLa [13]) of 9.2 µM and an IC50 [21] of 54.8 µM. For the same molecule, the inhibition [22] was 34%.
Work on `COc1cccc(CC(=O)NCCCn2c(=O)c3cc(F)ccc3n3c(=S)[nH]nc23)c1` yielded a solubility [3] greater than 60 µg/mL and a half-life [4] of 20.1 min.
In the case of `CCCCCCCCCC1=CO[C@]2(C[C@H](C(=O)O)[C@@](CC(=O)O)(C(=O)OCCCC)O2)C1=O`, the IC50 [18] is reported as 102 µM.
For `COc1c2c(cc3c1C(CC(=O)c1ccccn1)[N+](C)(C)CC3)OCO2` (stereo not drawn), the IC50 [23] was 2.1 µM and the IC50 (HeLa [24]) was 22.4 µM.
With `CC(=O)N1CCC[C@H]1C(=O)N[C@@H](CC(C)C)C(=O)N[C@@H](Cc1cn(CCCCCCCCc2ccccc2)nn1)C(=O)N[C@@H](CO)C(=O)N[C@H](C(N)=O)[C@@H](C)OP(=O)(O)O` the IC50 [17] was 0.69 µM.
